Assay results as given in US20080213863A1, “Method of Controlling Viral Outbreak” (priority 2003, published 2008).

Legend:
HIV-1 [1] = experiment: Infection of primary cells and cell lines by HIV-1 strains; assay type: cell-based; settings: primary cells and cell lines treated
HIV-1 [2] = experiment: HIV-1 binding to cells; assay type: cell-based; settings: treatment of the virus or cells
Text: (§1) As described above, budding of HIV-1 particles occurs at lipid rafts, which are characterized by a distinct lipid composition that includes high concentrations of cholesterol, sphingolipids, and glycolipids. Since cholesterol plays a key role in the entry of some other viruses, the role in HIV-1 entry of cholesterol and lipid rafts in the plasma membrane of susceptible cells was investigated. […] A β-CD derivative, 2-hydroxypropyl-β-cyclodextrin (2-OH-β-CD), was used to deplete cellular cholesterol and disperse lipid rafts. As disclosed herein, removal of cellular cholesterol rendered primary cells and cell lines highly resistant to HIV-1-mediated syncytium formation and to infection by both CXCR4- and CCR5-specific strains of HIV-1 virus. […] Cholesterol depletion also made cells resistant to SDF-1-induced binding to ICAM-1 through LFA-1.

CD4; chemokine receptors = experiment: CD4 expression and antibody-mediated internalization of chemokine receptors; assay type: cell-based; settings: treatment of the virus or cells
LFA-1 = experiment: SDF-1-induced binding of cells to ICAM-1 through LFA-1; assay type: cell-based; settings: cholesterol-depleted cells
Text: as §1

HIV-1 [3] = experiment: Capture of HIV-1 by MAbs against host and viral proteins, measured as percentage of total p24; assay type: cell-based
Text: By removing cholesterol, 2-OH-β-CD is believed to partially perturb organized lipid rafts, resulting in dispersal of their components (Ilangumaran and Hoessli, Biochem. J. 335:433-440, 1998).

HIV-1 [4] = experiment: HIV-1-mediated syncytium formation; assay type: cell-based; settings: treatment of target cells
[5] = system: CD4+ HIV-susceptible target cells; experiment: Depletion of total cellular cholesterol by 2-OH-β-CD treatment; assay type: cell-based; settings: 10 to 20 mM for 1 hour at 37° C., then washing
Text: The role of lipid rafts in the HIV-1 fusion process was examined by treating CD4+ HIV-susceptible target cells with 2-OH-β-CD to deplete membrane cholesterol and disperse lipid rafts.

[6] = after treating cells, percentage of total p24

2-hydroxypropyl-β-cyclodextrin [2-OH-β-CD]
cell growth after treatment (treated cells): continued to grow normally | Ca2+ flux responses to anti-CD3 MAb (Jurkat cells): still showed Ca^2+ flux responses | infection by CXCR4-specific and CCR5-specific HIV-1 strains (HIV-1 [1]): rendered resistant | HIV-1 binding (HIV-1 [2]): partially reduced | CD4 expression (CD4; chemokine receptors): no effect | antibody-mediated internalization of chemokine receptors (CD4; chemokine receptors): highly sensitive | SDF-1-induced binding to ICAM-1 through LFA-1 (LFA-1): resistant | CD45 capture of HIV-1 (HIV-1 [3]; after treating cells): remained unaffected | capture of HIV-1 by MAb against CD59 (HIV-1 [3]; [6]): decreased substantially | capture of HIV-1 by MAb against gp41 (HIV-1 [3]; [6]): decreased substantially | overall cellular release of p24 (HIV-1 [3]; after treatment): increased | syncytium formation of primary cells and cell lines (HIV-1 [4]): blocked syncytium formation | depletion of total cellular cholesterol [5]: greater than 70%
